Among the data in US9340590B2 (priority 2011, dated 2016) are IC50 values, retold here.

The structures appear in SMILES notation. Read-outs that look alike come from different tables or passages of the source. Positions of bridges follow the written chain, without caps; N, C: chain ends. Non-standard residues stand in square brackets, D forms with d. Residues, ends and D or L forms follow the SMILES beside them. Phe(4-COOH) = N[C@@H](Cc1ccc(C(=O)O)cc1)C(=O)O; hLeu = CC(C)CC[C@H](N)C(=O)O

Holding throughout (assay): cell-based
The target in assay [1] is hNav1.7 (Homo sapiens, UniProt Q15858). It is filed as cell-based. To be noted: IonWorks Quattro, read-out: IWQ Use Nav1.7.
Assay [2] deals with hNav1.3 (Homo sapiens, UniProt Q9NY46). To be noted: IonWorks Quattro, read-out: IWQ Use Nav1.3. For orientation: In patch-clamp work, channel activity is measured electrically.
Assay [3] concerns the target hNav1.5 (Homo sapiens, UniProt Q14524). To be noted: IonWorks Quattro, read-out: IWQ Use Nav1.5.
Where [4] appears, read: clamped to −110 mV, depolarized to −10 mV, 5 min after compound, n=2.

Chain of hNav1.7 (Q15858 whole entry, looked up): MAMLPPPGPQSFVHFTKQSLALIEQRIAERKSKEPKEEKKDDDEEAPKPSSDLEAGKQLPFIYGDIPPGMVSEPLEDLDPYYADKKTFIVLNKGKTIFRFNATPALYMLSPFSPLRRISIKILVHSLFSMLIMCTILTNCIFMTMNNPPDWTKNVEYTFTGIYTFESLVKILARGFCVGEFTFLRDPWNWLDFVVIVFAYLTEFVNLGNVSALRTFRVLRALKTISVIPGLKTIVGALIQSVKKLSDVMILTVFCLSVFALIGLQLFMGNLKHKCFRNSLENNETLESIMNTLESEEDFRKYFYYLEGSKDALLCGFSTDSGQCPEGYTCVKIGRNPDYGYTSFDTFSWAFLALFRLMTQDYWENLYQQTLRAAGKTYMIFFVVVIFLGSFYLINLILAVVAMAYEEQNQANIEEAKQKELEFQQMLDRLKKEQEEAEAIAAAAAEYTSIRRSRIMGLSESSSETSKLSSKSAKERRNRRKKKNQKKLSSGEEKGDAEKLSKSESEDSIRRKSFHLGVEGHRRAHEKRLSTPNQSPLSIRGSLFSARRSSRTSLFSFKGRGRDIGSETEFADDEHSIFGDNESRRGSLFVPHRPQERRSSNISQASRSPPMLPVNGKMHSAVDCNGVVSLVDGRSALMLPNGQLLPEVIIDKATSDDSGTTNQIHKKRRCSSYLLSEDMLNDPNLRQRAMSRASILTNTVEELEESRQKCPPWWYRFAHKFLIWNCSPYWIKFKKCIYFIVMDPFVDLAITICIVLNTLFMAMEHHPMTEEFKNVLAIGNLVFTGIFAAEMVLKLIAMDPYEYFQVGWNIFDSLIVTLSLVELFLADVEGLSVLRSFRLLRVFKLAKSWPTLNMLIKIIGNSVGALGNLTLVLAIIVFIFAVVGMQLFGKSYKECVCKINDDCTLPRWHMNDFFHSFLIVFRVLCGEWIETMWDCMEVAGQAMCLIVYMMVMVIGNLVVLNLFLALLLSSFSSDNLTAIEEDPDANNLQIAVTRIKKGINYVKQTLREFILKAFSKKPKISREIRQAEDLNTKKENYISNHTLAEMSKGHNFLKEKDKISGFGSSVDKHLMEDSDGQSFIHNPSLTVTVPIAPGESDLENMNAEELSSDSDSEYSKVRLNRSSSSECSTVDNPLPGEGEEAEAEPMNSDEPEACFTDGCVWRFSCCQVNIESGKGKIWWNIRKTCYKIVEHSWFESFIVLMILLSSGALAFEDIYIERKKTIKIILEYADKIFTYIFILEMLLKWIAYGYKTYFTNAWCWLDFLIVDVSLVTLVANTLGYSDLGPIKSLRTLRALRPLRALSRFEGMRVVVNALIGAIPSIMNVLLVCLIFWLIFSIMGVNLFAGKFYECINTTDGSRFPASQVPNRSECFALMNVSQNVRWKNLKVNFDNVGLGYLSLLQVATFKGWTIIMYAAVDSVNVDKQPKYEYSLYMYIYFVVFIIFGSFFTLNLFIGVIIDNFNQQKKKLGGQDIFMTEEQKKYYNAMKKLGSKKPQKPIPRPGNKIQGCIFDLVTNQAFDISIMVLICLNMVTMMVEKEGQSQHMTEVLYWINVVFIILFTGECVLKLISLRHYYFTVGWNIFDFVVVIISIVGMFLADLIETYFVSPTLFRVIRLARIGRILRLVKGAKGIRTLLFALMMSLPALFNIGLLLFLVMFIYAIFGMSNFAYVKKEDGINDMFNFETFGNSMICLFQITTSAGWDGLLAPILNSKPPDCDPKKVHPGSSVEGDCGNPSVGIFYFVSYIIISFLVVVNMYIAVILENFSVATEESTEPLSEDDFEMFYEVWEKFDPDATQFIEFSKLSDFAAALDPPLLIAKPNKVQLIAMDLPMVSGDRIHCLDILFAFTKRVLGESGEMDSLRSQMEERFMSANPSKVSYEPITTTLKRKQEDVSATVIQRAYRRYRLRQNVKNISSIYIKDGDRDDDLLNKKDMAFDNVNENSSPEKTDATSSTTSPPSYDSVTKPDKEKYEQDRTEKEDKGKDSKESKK
Chain of hNav1.3 (Q9NY46 whole entry, looked up): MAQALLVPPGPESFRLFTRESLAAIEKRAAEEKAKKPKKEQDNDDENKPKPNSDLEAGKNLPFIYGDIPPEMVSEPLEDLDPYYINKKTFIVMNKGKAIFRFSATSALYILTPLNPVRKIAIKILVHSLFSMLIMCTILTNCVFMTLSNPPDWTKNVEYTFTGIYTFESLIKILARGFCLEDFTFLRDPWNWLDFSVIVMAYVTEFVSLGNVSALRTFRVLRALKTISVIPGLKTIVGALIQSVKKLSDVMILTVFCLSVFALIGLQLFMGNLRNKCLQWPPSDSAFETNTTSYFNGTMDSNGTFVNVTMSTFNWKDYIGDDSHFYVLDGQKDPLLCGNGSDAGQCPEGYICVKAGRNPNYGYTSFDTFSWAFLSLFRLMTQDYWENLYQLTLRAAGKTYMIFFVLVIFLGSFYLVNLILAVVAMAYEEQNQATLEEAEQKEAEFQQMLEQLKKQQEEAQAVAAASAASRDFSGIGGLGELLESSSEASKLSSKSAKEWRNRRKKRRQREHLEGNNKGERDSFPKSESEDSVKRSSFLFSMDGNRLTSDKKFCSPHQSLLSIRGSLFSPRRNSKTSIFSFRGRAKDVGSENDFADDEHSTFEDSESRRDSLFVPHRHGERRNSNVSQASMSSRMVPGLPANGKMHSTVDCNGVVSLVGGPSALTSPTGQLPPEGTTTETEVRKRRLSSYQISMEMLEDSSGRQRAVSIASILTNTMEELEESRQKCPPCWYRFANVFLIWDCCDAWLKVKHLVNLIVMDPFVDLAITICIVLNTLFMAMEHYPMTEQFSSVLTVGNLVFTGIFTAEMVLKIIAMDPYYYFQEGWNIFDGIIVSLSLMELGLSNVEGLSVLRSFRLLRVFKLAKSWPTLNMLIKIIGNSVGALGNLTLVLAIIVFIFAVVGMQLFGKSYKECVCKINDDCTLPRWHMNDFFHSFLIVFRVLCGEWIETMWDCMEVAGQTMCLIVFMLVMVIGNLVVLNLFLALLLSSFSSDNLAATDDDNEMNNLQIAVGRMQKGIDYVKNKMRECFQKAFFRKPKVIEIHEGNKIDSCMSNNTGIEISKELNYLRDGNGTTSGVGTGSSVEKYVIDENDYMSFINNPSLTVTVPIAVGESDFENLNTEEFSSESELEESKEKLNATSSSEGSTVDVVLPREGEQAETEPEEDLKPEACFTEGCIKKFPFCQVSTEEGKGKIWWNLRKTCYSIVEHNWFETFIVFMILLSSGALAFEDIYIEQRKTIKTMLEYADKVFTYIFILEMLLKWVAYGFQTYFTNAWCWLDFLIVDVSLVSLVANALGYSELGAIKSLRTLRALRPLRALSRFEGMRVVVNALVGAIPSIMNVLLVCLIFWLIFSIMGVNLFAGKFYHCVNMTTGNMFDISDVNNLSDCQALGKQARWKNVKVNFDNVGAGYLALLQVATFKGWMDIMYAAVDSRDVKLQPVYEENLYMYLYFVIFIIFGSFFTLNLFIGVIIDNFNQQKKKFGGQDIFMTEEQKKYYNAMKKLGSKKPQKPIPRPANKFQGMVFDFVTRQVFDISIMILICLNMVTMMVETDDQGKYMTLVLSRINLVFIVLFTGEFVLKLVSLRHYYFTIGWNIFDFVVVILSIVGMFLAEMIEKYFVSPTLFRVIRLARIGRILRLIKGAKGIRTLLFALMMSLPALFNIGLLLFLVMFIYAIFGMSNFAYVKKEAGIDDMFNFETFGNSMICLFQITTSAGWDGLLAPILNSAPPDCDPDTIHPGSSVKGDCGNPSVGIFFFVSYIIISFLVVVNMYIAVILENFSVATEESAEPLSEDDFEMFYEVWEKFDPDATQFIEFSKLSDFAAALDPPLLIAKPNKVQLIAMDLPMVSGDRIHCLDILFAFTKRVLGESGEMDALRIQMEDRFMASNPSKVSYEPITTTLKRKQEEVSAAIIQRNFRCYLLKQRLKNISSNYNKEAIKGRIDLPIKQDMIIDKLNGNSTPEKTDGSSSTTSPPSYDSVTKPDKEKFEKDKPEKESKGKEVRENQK

In the case of `CC[C@H](C)[C@@H]1NC(=O)[C@@H]2CSSC[C@@H]3NC(=O)[C@H](C(C)C)NC(=O)[C@H](CC(C)C)NC(=O)[C@H](CC(N)=O)NC(=O)[C@@H]4CCCN4C(=O)[C@H](CCCNC(=N)N)NC(=O)[C@H](CSSC[C@H](NC(=O)[C@@H](N)CC(=O)O)C(=O)N[C@@H](CC(C)C)C(=O)NCC(=O)NCC(=O)N[C@@H](CCSC)C(=O)N[C@@H](CCCNC(=N)N)C(=O)N[C@@H](CCCCN)C(=O)N2)NC(=O)[C@H](CSSC[C@@H](C(=O)N[C@@H](CCCCN)C(=O)N[C@@H](Cc2ccc(O)cc2)C(=O)N[C@H](C(=O)N[C@@H](Cc2ccccc2)C(N)=O)C(C)C)NC(=O)[C@H](Cc2c[nH]c4ccccc24)NC(=O)[C@H](CCCCN)NC(=O)[C@H](Cc2cnc[nH]2)NC(=O)[C@H]([C@@H](C)O)NC(=O)[C@H](CCCNC(=N)N)NC(=O)[C@H](CO)NC3=O)NC(=O)[C@H](CCCCN)NC(=O)[C@H](CC(=O)O)NC(=O)[C@H](CC(N)=O)NC(=O)[C@H](CC(=O)O)NC(=O)[C@@H]2CCCN2C1=O` [SEQ ID NO: 265] (H-DCLGGMRKCIPDNDKCCRPNLVCSRTHKWCKYVF-NH2; disulfide 2-17, 9-23, 16-30), the IC50 in assay [1] (setting [4]) turned out to be 750 nM; in assay [2] (setting [4]), 1240 nM; in assay [3] (setting [4]) it was 7470 nM.

With `CC[C@H](C)[C@@H]1NC(=O)[C@@H]2CSSC[C@@H]3NC(=O)[C@H](CC(N)=O)NC(=O)[C@H](CC(C)C)NC(=O)[C@H](CC(N)=O)NC(=O)[C@@H]4CCCN4C(=O)[C@H](CCCNC(=N)N)NC(=O)[C@H](CSSC[C@H](NC(=O)[C@@H](N)CC(=O)O)C(=O)N[C@@H](CC(C)C)C(=O)NCC(=O)N[C@@H](Cc4ccccc4)C(=O)N[C@@H](CCSC)C(=O)N[C@@H](CCCNC(=N)N)C(=O)N[C@@H](CCCCN)C(=O)N2)NC(=O)[C@H](CSSC[C@@H](C(=O)N[C@@H](CCCCN)C(=O)N[C@@H](Cc2ccc(O)cc2)C(=O)N[C@H](C(=O)N[C@@H](Cc2ccccc2)C(N)=O)C(C)C)NC(=O)[C@H](Cc2c[nH]c4ccccc24)NC(=O)[C@H](CCCCN)NC(=O)[C@H](Cc2c[nH]cn2)NC(=O)[C@H]([C@@H](C)O)NC(=O)[C@H](CCCNC(=N)N)NC(=O)[C@H](CO)NC3=O)NC(=O)[C@H](CCCCN)NC(=O)[C@H](CC(=O)O)NC(=O)[C@H](CC(N)=O)NC(=O)[C@H](CC(=O)O)NC(=O)[C@@H]2CCCN2C1=O` [compound 325] (H-DCLGFMRKCIPDNDKCCRPNLNCSRTHKWCKYVF-NH2; disulfide 2-17, 9-23, 16-30), the values for the IC50 in assay [1] (Use), in assay [2] (Use) and in assay [3] (Use) were 240 nM, 90 nM and 8070 nM, respectively.

In the case of `CC[C@H](C)[C@@H]1NC(=O)[C@@H]2CSSC[C@@H]3NC(=O)[C@H](C(C)C)NC(=O)[C@H](CC(C)C)NC(=O)[C@H](CC(N)=O)NC(=O)[C@@H]4CCCN4C(=O)[C@H](CCCNC(=N)N)NC(=O)[C@H](CSSC[C@H](NC(=O)[C@@H](N)CC(=O)O)C(=O)N[C@@H](CC(C)C)C(=O)NCC(=O)N[C@@H](CCC(C)C)C(=O)N[C@@H](Cc4ccccc4)C(=O)N[C@@H](CCCNC(=N)N)C(=O)N[C@@H](CCCCN)C(=O)N2)NC(=O)[C@H](CSSC[C@@H](C(=O)N[C@@H](CCCCN)C(=O)N[C@@H](Cc2ccc(O)cc2)C(=O)N[C@H](C(=O)N[C@@H](Cc2ccccc2)C(N)=O)C(C)C)NC(=O)[C@H](Cc2c[nH]c4ccccc24)NC(=O)[C@H](CCCCN)NC(=O)[C@H](Cc2c[nH]cn2)NC(=O)[C@H]([C@@H](C)O)NC(=O)[C@H](CCCNC(=N)N)NC(=O)[C@H](CO)NC3=O)NC(=O)[C@H](CCCCN)NC(=O)[C@H](CC(=O)O)NC(=O)[C@H](CC(N)=O)NC(=O)[C@H](CC(=O)O)NC(=O)[C@@H]2CCCN2C1=O` [compound 610] (H-DCLG[hLeu]FRKCIPDNDKCCRPNLVCSRTHKWCKYVF-NH2; disulfide 2-17, 9-23, 16-30), the IC50 in assay [1] (use-dependent block, hNav1.7) turned out to be 11 nM; in assay [2] (use-dependent block, hNav1.3), 41 nM; in assay [3] (use-dependent block, hNav1.5), 8200 nM.

Regarding `CC[C@H](C)[C@@H]1NC(=O)[C@@H]2CSSC[C@@H]3NC(=O)[C@H](C(C)C)NC(=O)[C@H](CC(C)C)NC(=O)[C@H](CC(N)=O)NC(=O)[C@@H]4CCCN4C(=O)[C@H](CCCNC(=N)N)NC(=O)[C@H](CSSC[C@H](NC(=O)[C@@H](N)CC(=O)O)C(=O)N[C@@H](CC(C)C)C(=O)NCC(=O)N[C@@H](C)C(=O)N[C@@H](CC(C)C)C(=O)N[C@@H](CCCNC(=N)N)C(=O)N[C@@H](CCCCN)C(=O)N2)NC(=O)[C@H](CSSC[C@@H](C(=O)N[C@@H](CCCCN)C(=O)N[C@@H](Cc2ccc(O)cc2)C(=O)N[C@H](C(=O)N[C@@H](Cc2ccccc2)C(=O)O)C(C)C)NC(=O)[C@H](Cc2c[nH]c4ccccc24)NC(=O)[C@H](CCCNC(=N)N)NC(=O)[C@H](Cc2c[nH]cn2)NC(=O)[C@H]([C@@H](C)O)NC(=O)[C@H](CCCNC(=N)N)NC(=O)[C@H](CO)NC3=O)NC(=O)[C@H](CCCCN)NC(=O)[C@H](CC(=O)O)NC(=O)[C@H](C(C)C)NC(=O)[C@H](CC(=O)O)NC(=O)[C@@H]2CCCN2C1=O` [compound 872] (H-DCLGALRKCIPDVDKCCRPNLVCSRTHRWCKYVF-OH; disulfide 2-17, 9-23, 16-30), the IC50 in assay [1] (use-dependent block, hNav1.7) is over 5000 nM; in assay [2] (use-dependent block, hNav1.3), over 5000 nM; in assay [3] (use-dependent block, hNav1.5), over 5000 nM.

Consider `CC[C@H](C)[C@@H]1NC(=O)[C@@H]2CSSC[C@@H]3NC(=O)[C@H](C(C)C)NC(=O)[C@H](CC(C)C)NC(=O)[C@H](CC(N)=O)NC(=O)[C@@H]4CCCN4C(=O)[C@H](CCCNC(=N)N)NC(=O)[C@H](CSSC[C@H](NC(=O)[C@@H](N)CC(=O)O)C(=O)N[C@@H](CC(C)C)C(=O)NCC(=O)N[C@@H](C)C(=O)N[C@@H](Cc4cn(C)c5ccccc45)C(=O)N[C@@H](CCCNC(=N)N)C(=O)N[C@@H](CCCCN)C(=O)N2)NC(=O)[C@H](CSSC[C@@H](C(=O)N[C@@H](CCCCN)C(=O)N[C@@H](Cc2ccc(O)cc2)C(=O)N[C@H](C(=O)N[C@@H](Cc2ccccc2)C(N)=O)C(C)C)NC(=O)[C@H](Cc2c[nH]c4ccccc24)NC(=O)[C@H](CCCCN)NC(=O)[C@H](Cc2c[nH]cn2)NC(=O)[C@H]([C@@H](C)O)NC(=O)[C@H](CCCNC(=N)N)NC(=O)[C@H](CO)NC3=O)NC(=O)[C@H](CCCCN)NC(=O)[C@H](CC(=O)O)NC(=O)[C@H](CC(N)=O)NC(=O)[C@H](CC(=O)O)NC(=O)[C@@H]2CCCN2C1=O` [compound 699], for which the IC50 in assay [1] (use-dependent protocol, hNav1.7) was 340 nM; in assay [2] (use-dependent protocol, hNav1.3), 320 nM; in assay [3] (use-dependent protocol, hNav1.5), over 5000 nM.

`CC[C@H](C)[C@@H]1NC(=O)[C@@H]2CSSC[C@@H]3NC(=O)[C@H](C(C)C)NC(=O)[C@H](CC(C)C)NC(=O)[C@H](CC(N)=O)NC(=O)[C@@H]4CCCN4C(=O)[C@H](CCCNC(=N)N)NC(=O)[C@H](CSSC[C@H](NC(=O)[C@@H](N)CC(=O)O)C(=O)N[C@@H](CC(C)C)C(=O)NCC(=O)N[C@@H](Cc4ccccc4)C(=O)N[C@@H](CCSC)C(=O)N[C@@H](CCCNC(=N)N)C(=O)N[C@@H](CCCCN)C(=O)N2)NC(=O)[C@H](CSSC[C@@H](C(=O)N[C@@H](CCCCN)C(=O)N[C@@H](Cc2ccc(C(=O)O)cc2)C(=O)N[C@H](C(=O)N[C@@H](Cc2ccccc2)C(N)=O)C(C)C)NC(=O)[C@H](Cc2c[nH]c4ccccc24)NC(=O)[C@H](CCCCN)NC(=O)[C@H](Cc2c[nH]cn2)NC(=O)[C@H]([C@@H](C)O)NC(=O)[C@H](CCCNC(=N)N)NC(=O)[C@H](CO)NC3=O)NC(=O)[C@H](CCCCN)NC(=O)[C@H](CC(=O)O)NC(=O)[C@H](CC(N)=O)NC(=O)[C@H](CC(=O)O)NC(=O)[C@@H]2CCCN2C1=O` [compound 385] (H-DCLGFMRKCIPDNDKCCRPNLVCSRTHKWCK[Phe(4-COOH)]VF-NH2; disulfide 2-17, 9-23, 16-30): the IC50 in assay [1] (Table 25, use, […]) was 11400 nM; in assay [2] (Table 25, use, […]), 4050 nM; in assay [3] (Table 25, use, […]) it was 7700 nM.

With `CC[C@H](C)[C@@H]1NC(=O)[C@@H]2CSSC[C@@H]3NC(=O)[C@H](C(C)C)NC(=O)[C@H](CC(C)C)NC(=O)[C@H](CC(N)=O)NC(=O)[C@@H]4CCCN4C(=O)[C@H](CCCNC(=N)N)NC(=O)[C@H](CSSC[C@H](NC(=O)[C@H](CC(=O)O)NC(=O)[C@@H](N)Cc4c[nH]c5ccccc45)C(=O)N[C@@H](CC(C)C)C(=O)NCC(=O)N[C@@H](Cc4ccccc4)C(=O)N[C@@H](CCSC)C(=O)N[C@@H](CCCNC(=N)N)C(=O)N[C@@H](CCCCN)C(=O)N2)NC(=O)[C@H](CSSC[C@@H](C(=O)N[C@@H](CCCCN)C(=O)N[C@@H](Cc2ccc(O)cc2)C(=O)N[C@H](C(=O)N[C@@H](Cc2ccccc2)C(N)=O)C(C)C)NC(=O)[C@H](Cc2c[nH]c4ccccc24)NC(=O)[C@H](CCCCN)NC(=O)[C@H](Cc2cnc[nH]2)NC(=O)[C@H]([C@@H](C)O)NC(=O)[C@H](CCCNC(=N)N)NC(=O)[C@H](CO)NC3=O)NC(=O)[C@H](CCCCN)NC(=O)[C@H](CC(=O)O)NC(=O)[C@H](CC(N)=O)NC(=O)[C@H](CC(=O)O)NC(=O)[C@@H]2CCCN2C1=O` [SEQ ID NO: 106], the IC50 was 220 nM in assay [1] (setting [4]), 250 nM in assay [2] (setting [4]) and 22000 nM in assay [3] (setting [4]).
